Data taken from US7091202B2, “4-arylspirocycloalkyl-2-aminopyrimidine carboxamide KCNQ potassium channel modulators” (Bristol-Myers Squibb Company, priority 2004, dated 2006).

Molecular target: T1, hQ23 (HEK-293 cell line stably transfected with one of the members of the KCNQ family) (Homo sapiens, UniProt O43525+O43526)
T1 construct: expressed in transfected cells; host or cells: HEK-293, stably transfected
Assay: Thallium flux assay for KCNQ channel blockers (FLIPR, BTC dye)
Type: cell-based
Conditions: Table 2; thallium flux, HEK-293
Summary of the method: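 HEK-293 cells stably expressing a KCNQ member, loaded with BTC-AM (2 μM) in chloride-free buffer, pH 7.3; compounds added at 1% DMSO, then Tl2SO4 stimulus on FLIPR (488/540 nm, 60 s). Minimal active concentration set at ≥4 SD above negative control; IC50 from 10-point 1:3 series, single-site logistic fit versus the positive-control blocker.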

T1 sequence (O43526 whole entry): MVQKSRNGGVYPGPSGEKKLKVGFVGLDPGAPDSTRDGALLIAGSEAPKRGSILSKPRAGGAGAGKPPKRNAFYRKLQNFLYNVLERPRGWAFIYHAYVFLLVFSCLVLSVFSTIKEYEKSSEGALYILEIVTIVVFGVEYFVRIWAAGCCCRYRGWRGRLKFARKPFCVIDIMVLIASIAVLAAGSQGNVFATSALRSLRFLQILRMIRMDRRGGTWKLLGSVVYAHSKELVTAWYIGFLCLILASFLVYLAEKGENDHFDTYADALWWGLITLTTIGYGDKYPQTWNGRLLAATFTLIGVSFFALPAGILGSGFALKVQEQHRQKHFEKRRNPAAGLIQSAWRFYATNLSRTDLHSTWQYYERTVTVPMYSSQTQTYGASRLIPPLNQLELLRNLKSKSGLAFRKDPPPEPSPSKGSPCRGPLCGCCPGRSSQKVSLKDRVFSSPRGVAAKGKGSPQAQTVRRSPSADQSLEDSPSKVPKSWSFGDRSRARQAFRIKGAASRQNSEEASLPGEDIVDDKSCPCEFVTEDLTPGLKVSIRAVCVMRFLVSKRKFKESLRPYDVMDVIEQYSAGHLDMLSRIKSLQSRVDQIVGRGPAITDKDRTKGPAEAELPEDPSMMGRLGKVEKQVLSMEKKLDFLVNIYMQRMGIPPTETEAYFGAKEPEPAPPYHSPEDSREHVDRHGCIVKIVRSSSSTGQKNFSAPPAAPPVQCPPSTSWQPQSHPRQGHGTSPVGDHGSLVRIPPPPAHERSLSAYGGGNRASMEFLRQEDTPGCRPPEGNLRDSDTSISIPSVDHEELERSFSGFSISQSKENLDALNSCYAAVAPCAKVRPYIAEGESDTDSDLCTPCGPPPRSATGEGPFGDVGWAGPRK
T1 sequence (O43525 whole entry): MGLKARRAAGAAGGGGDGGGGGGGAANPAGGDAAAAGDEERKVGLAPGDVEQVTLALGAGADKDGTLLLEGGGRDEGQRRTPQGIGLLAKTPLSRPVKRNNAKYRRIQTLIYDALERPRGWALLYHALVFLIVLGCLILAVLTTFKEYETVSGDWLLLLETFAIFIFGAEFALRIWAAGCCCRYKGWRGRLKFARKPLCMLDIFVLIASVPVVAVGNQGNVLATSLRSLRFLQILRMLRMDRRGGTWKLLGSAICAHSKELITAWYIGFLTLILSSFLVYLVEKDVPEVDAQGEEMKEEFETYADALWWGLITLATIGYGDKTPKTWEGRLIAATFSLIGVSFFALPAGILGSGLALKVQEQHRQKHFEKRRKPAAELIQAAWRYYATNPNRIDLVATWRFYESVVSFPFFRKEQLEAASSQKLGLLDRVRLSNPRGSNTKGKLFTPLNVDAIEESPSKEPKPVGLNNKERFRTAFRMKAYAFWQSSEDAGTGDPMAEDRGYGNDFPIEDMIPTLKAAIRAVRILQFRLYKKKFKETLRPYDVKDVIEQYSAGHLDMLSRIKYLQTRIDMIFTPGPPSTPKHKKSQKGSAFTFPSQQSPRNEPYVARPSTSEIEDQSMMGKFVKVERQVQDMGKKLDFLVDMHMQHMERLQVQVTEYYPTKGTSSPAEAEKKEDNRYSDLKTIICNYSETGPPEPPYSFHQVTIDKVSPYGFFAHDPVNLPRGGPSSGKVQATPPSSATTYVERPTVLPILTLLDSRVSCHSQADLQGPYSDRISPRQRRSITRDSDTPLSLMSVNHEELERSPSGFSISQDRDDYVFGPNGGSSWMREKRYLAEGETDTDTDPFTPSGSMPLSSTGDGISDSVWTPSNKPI

`CC1CCC(Nc2ncc(C(=O)NCc3ccc(Cl)cc3Cl)c(C3(c4ccccc4)CC3)n2)CC1` (centres unmarked) [Example 39, 5-pyrimidinecarboxamide, N-[(2,4-dichlorophenyl)methyl]-2-[(4-methylcyclohexyl)amino]-4-(1-phenylcyclopropyl)-] and `CC1CCC(Nc2ncc(C(=O)NCc3cccc4ccccc34)c(C3(c4ccccc4)CC3)n2)CC1` (centres unmarked) [Example 36, 5-pyrimidinecarboxamide, 2-[(4-methylcyclohexyl)amino]-N-(1-naphthalenylmethyl)-4-(1-phenylcyclopropyl)-] are within 1.5-fold of each other in EC50: 551 nM for the first, 586 nM for the second.

`CC1CCC(Nc2ncc(C(=O)NC(C)c3ccc(F)cc3)c(C3(c4ccccc4)CC3)n2)CC1` (centres unmarked) [Example 49, 5-pyrimidinecarboxamide, N-[1-(4-fluorophenyl)ethyl]-2-[(4-methylcyclohexyl)amino]-4-(1-phenylcyclopropyl)-] and `CC1CCCN(c2ncc(C(=O)NC(C)c3ccc(F)cc3)c(C3(c4ccccc4)CC3)n2)C1` (centres unmarked) [Example 50, 5-pyrimidinecarboxamide, N-[1-(4-fluorophenyl)ethyl]-2-(3-methyl-1-piperidinyl)-4-(1-phenylcyclopropyl)-] are within 1.5-fold of each other in EC50: 575 nM for the first, 673 nM for the second.

`CCN(Cc1ccccc1)C(=O)c1cnc(N2CCCC(C)C2)nc1C1(c2ccccc2)CC1` (centres unmarked) [Example 30, 5-pyrimidinecarboxamide, N-ethyl-2-(3-methyl-1-piperidinyl)-4-(1-phenylcyclopropyl)-N-(phenylmethyl)-] was tested, and the EC50 was 634 nM.

Same assay, conditions: Table 3; thallium flux, HEK-293

First: O=C(NCc1cccc2ccccc12)c1cnc(NC2CC2)nc1C1(c2ccc(Cl)cc2)CCC1 [Example 60, 5-pyrimidinecarboxamide, 4-[1-(4-chlorophenyl)cyclobutyl]-2-(cyclopropylamino)-N-(1-naphthalenylmethyl)-]
Second: CC1CCCN(c2ncc(C(=O)NCc3cccc4ccccc34)c(C3(c4ccc(Cl)cc4)CCC3)n2)C1 (centres unmarked) [Example 62, 5-pyrimidinecarboxamide, 4-[1-(4-chlorophenyl)cyclobutyl]-2-(3-methyl-1-piperidinyl)-N-(1-naphthalenylmethyl)-]
The EC50 of the first is 16-fold higher: 614 nM for the first, 39 nM for the second. The second is the more potent here.

With `CCC(C)Nc1ncc(C(=O)N(CC)CC)c(C2(c3ccc(Cl)cc3)CCC2)n1` (centres unmarked) [Example 52, 5-pyrimidinecarboxamide, 4-[1-(4-chlorophenyl)cyclobutyl]-N,N-diethyl-2-[(1-methylpropyl)amino]-] the EC50 was 211 nM.

Same assay, conditions: hQ23 cells, thallium flux

Going from `O=C(NCc1cccc2ccccc12)c1cnc(NC2CCCC2)nc1C1(c2ccc(Cl)cc2)CCCC1` [Example 172, 5-pyrimidinecarboxamide, 4-[1-(4-chlorophenyl)cyclopentyl]-2-(cyclopentylamino)-N-(1-naphthalenylmethyl)-] to `CC(NC(=O)c1cnc(NC2CCCC2)nc1C1(c2ccc(Cl)cc2)CCCC1)c1cccc2ccccc12` (centres unmarked) [Example 164, 5-pyrimidinecarboxamide, 4-[1-(4-chlorophenyl)cyclopentyl]-2-(cyclopentylamino)-N-[1-(1-naphthalenyl)ethyl]-], the EC50 falls from 373 nM to 10 nM (37-fold). The second is the more potent here.

Compared with `CCN(Cc1ccccc1)C(=O)c1cnc(NC2CCC(C)CC2)nc1C1(c2ccc(F)cc2)CCCC1` (centres unmarked) [Example 228, 5-pyrimidinecarboxamide, N-ethyl-4-[1-(4-fluorophenyl)cyclopentyl]-2-[(4-methylcyclohexyl)amino]-N-(phenylmethyl)-], `CC1CCC(Nc2ncc(C(=O)N(C)CCc3ccccc3)c(C3(c4ccc(F)cc4)CCCC3)n2)CC1` (centres unmarked) [Example 219, 5-pyrimidinecarboxamide, 4-[1-(4-fluorophenyl)cyclopentyl]-N-methyl-2-[(4-methylcyclohexyl)amino]-N-(2-phenylethyl)-] is 1.9-fold lower in EC50: 637 nM for the first, 334 nM for the second.

`CCN(Cc1ccccc1)C(=O)c1cnc(NC2CCCC2)nc1C1(c2ccc(Cl)cc2)CCCC1` [Example 149, 5-pyrimidinecarboxamide, 4-[1-(4-chlorophenyl)cyclopentyl]-2-(cyclopentylamino)-N-ethyl-N-(phenylmethyl)-] and `CC1CCC(Nc2ncc(C(=O)N(C)CCc3ccccc3)c(C3(c4ccc(Cl)cc4)CCCC3)n2)CC1` (centres unmarked) [Example 146, 5-pyrimidinecarboxamide, 4-[1-(4-chlorophenyl)cyclopentyl]-N-methyl-2-[(4-methylcyclohexyl)amino]-N-(2-phenylethyl)-] are within 1.5-fold of each other in EC50: 525 nM for the first, 664 nM for the second.

`CCN(CC)C(=O)c1cnc(NC2CCC(C)CC2)nc1C1(c2ccccc2)CCCC1` (centres unmarked) [Example 72, 5-pyrimidinecarboxamide,N,N-diethyl-2-[(4-methylcyclohexyl)amino]-4-(1-phenylcyclopentyl)-] and `CC1CCN(c2ncc(C(=O)N3CCCC(C)C3)c(C3(c4ccccc4)CCCC3)n2)CC1` (centres unmarked) [Example 78, piperidine, 3-methyl-1-[[2-(4-methyl-1-piperidinyl)-4-(1-phenylcyclopentyl)-5-pyrimidinyl]carbonyl]-] are within 1.5-fold of each other in EC50: 576 nM for the first, 775 nM for the second.

First: O=C(NCc1ccc(Cl)cc1Cl)c1cnc(NC2CCCC2)nc1C1(c2ccc(Cl)cc2)CCCC1 [Example 185, 5-pyrimidinecarboxamide, 4-[1-(4-chlorophenyl)cyclopentyl]-2-(cyclopentylamino)-N-[(2,4-dichlorophenyl)methyl]-]
Second: O=C(NCc1ccc(Cl)cc1Cl)c1cnc(NC2CC2)nc1C1(c2ccc(Cl)cc2)CCCC1 [Example 176, 5-pyrimidinecarboxamide, 4-[1-(4-chlorophenyl)cyclopentyl]-2-(cyclopropylamino)-N-[(2,4-dichlorophenyl)methyl]-]
The EC50 of the first is 20-fold lower: 10 nM for the first, 196 nM for the second. The first is the more potent here.

First: CC1CCN(c2ncc(C(=O)NCc3ccc(F)cc3F)c(C3(c4ccccc4)CCCC3)n2)CC1 [Example 119, 5-pyrimidinecarboxamide, N-[(2,4-difluorophenyl)methyl]-2-(4-methyl-1-piperidinyl)-4-(1-phenylcyclopentyl)-]
Second: CC1CCCN(c2ncc(C(=O)NCc3ccc(F)cc3F)c(C3(c4ccccc4)CCCC3)n2)C1 (centres unmarked) [Example 118, 5-pyrimidinecarboxamide, N-[(2,4-difluorophenyl)methyl]-2-(3-methyl-1-piperidinyl)-4-(1-phenylcyclopentyl)-]
The EC50 of the first is 3.3-fold higher: 122 nM for the first, 37 nM for the second. The second is the more potent here.

First: CC1CCN(c2ncc(C(=O)N3CCc4ccccc4C3)c(C3(c4ccccc4)CCCC3)n2)CC1 [Example 74, isoquinoline, 1,2,3,4-tetrahydro-2-[[2-(4-methyl-1-piperidinyl)-4-(1-phenylcyclopentyl)-5-pyrimidinyl]carbonyl]-]
Second: CC1CCN(c2ncc(C(=O)NC(C)c3cccc4ccccc34)c(C3(c4ccccc4)CCCC3)n2)CC1 (centres unmarked) [Example 98, 5-pyrimidinecarboxamide, 2-(4-methyl-1-piperidinyl)-N-[1-(1-naphthalenyl)ethyl]-4-(1-phenylcyclopentyl)-]
The EC50 of the first is 13-fold higher: 191 nM for the first, 15 nM for the second.

`CC1CCN(c2ncc(C(=O)N(C)CCc3ccccc3)c(C3(c4ccc(F)cc4)CCCC3)n2)CC1` [Example 222, 5-pyrimidinecarboxamide, 4-[1-(4-fluorophenyl)cyclopentyl]-N-methyl-2-(4-methyl-1-piperidinyl)-N-(2-phenylethyl)-] and `CC1CCCN(c2ncc(C(=O)N(C)CCc3ccccc3)c(C3(c4ccc(F)cc4)CCCC3)n2)C1` (centres unmarked) [Example 221, 5-pyrimidinecarboxamide, 4-[1-(4-fluorophenyl)cyclopentyl]-N-methyl-2-(3-methyl-1-piperidinyl)-N-(2-phenylethyl)-] are within 1.5-fold of each other in EC50: 273 nM for the first, 356 nM for the second.

`CCC(C)Nc1ncc(C(=O)N(C)CCc2ccccc2)c(C2(c3ccc(F)cc3)CCCC2)n1` (centres unmarked) [Example 223, 5-pyrimidinecarboxamide, 4-[1-(4-fluorophenyl)cyclopentyl]-N-methyl-2-[(1-methylpropyl)amino]-N-(2-phenylethyl)-] and `CN(Cc1ccccc1)C(=O)c1cnc(N2CCCC2)nc1C1(c2ccccc2)CCCC1` [Example 69, 5-pyrimidinecarboxamide, N-methyl-4-(1-phenylcyclopentyl)-N-(phenylmethyl)-2-(1-pyrrolidinyl)-] are within 1.5-fold of each other in EC50: 675 nM for the first, 778 nM for the second.

`CN1CCN(c2ncc(C(=O)NCc3ccc4c(c3)OCO4)c(C3(c4ccccc4)CCCC3)n2)CC1` [Example 91, 5-pyrimidinecarboxamide, N-(1,3-benzodioxol-5-ylmethyl)-2-(4-methyl-1-piperazinyl)-4-(1-phenylcyclopentyl)-] and `CC(NC(=O)c1cnc(NC2CC2)nc1C1(c2ccc(Cl)cc2)CCCC1)c1cccc2ccccc12` (centres unmarked) [Example 157, 5-pyrimidinecarboxamide, 4-[1-(4-chlorophenyl)cyclopentyl]-2-(cyclopropylamino)-N-[1-(1-naphthalenyl)ethyl]-] are within 1.5-fold of each other in EC50: 257 nM for the first, 195 nM for the second.

Same assay, conditions: hQ23 cells, thallium flux assay

Compared with `CC1CCN(c2ncc(C(=O)NCc3cccc4ccccc34)c(C3(c4ccc(F)cc4)CCCC3)n2)CC1` [Example 251, 5-pyrimidinecarboxamide, 4-[1-(4-fluorophenyl)cyclopentyl]-2-(4-methyl-1-piperidinyl)-N-(1-naphthalenylmethyl)-], `O=C(NCc1cccc2ccccc12)c1cnc(NC2CCCC2)nc1C1(c2ccc(F)cc2)CCCC1` [Example 253, 5-pyrimidinecarboxamide, 2-(cyclopentylamino)-4-[1-(4-fluorophenyl)cyclopentyl]-N-(1-naphthalenylmethyl)-] is 12-fold higher in EC50: 15 nM for the first, 183 nM for the second.

Compared with `CCC(C)Nc1ncc(C(=O)NCc2cc(F)cc(C(F)(F)F)c2)c(C2(c3ccc(F)cc3)CCCC2)n1` (centres unmarked) [Example 279, 5-pyrimidinecarboxamide, 4-[1-(4-fluorophenyl)cyclopentyl]-N-[[3-fluoro-5-(trifluoromethyl)phenyl]methyl]-2-[(1-methylpropyl)amino]-], `CC1CCC(Nc2ncc(C(=O)NCc3ccc(Cl)cc3Cl)c(C3(c4ccc(F)cc4)CCCC3)n2)CC1` (centres unmarked) [Example 260, 5-pyrimidinecarboxamide, N-[(2,4-dichlorophenyl)methyl]-4-[1-(4-fluorophenyl)cyclopentyl]-2-[(4-methylcyclohexyl)amino]-] is 5.5-fold lower in EC50: 55 nM for the first, 10 nM for the second.
